Where “and” joins values, the source holds several entries; their conditions need not be identical. Identical values can stand only once.
Tests used:
wt IDH1 [1] = molecular target: T1, wt IDH1 (Homo sapiens, UniProt O75874); experiment: Absorbance assay: effect of metal ions on catalysis and inhibition of wt IDH1; format: biochemical; settings: for inhibition by metal ion: wt IDH1, metal ions 10 mM in the presence of 10 mM Mg^2+
T1 construct: made in house; host or cells: Escherichia coli BL21(DE3) pLyS
T1 sequence (O75874 2-414): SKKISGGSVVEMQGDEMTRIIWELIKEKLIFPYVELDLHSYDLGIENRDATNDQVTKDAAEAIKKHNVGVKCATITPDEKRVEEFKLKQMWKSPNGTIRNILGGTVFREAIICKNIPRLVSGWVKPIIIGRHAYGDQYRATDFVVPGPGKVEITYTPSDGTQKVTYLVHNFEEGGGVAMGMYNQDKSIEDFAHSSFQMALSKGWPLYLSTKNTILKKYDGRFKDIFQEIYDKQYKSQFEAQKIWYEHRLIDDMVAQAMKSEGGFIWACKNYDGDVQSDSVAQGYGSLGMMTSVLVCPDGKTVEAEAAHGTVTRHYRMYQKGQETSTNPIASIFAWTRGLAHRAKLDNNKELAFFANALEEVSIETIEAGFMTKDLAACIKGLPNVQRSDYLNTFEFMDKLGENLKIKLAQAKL
Description: Inhibition assays of wt or R132H IDH1 with metal ions were conducted with a 12 min pre-incubation of metal ions (25 µL, final concentration 10 mM) and enzyme (25 µL) before the addition of substrate (25 µL) and cofactor (25 µL). […] The difference in absorbance, ΔA340, in the linear range of the reaction profile was converted to % residual activity with the DMSO control being the 100% residual activity reference.

wt IDH1 [2] = molecular target: T1, wt IDH1; experiment: CPMG-edited 1H NMR ligand binding, wt IDH1; settings: for binding to wt IDH1 / displacement of D-isocitrate from wt IDH1: without metal ions; for binding to wt IDH1: DSF and NMR; for weakening of D-isocitrate binding to wt IDH1: with Mg^2+ or Ca^2+ (10 mM); for displacement of D-isocitrate from wt IDH1: inhibitor 50 µM, D-isocitrate 50 µM, wt IDH1 6.25 µM
Description: Additional solvent presaturation was applied for 2 s. The assay mixture contains 160 µL of a 50 µM solution of the compound of interest ± 10 mM metal chloride salts in 50 mM Tris-D11-HCl in 90% H2O/10% D2O at pH 7.5. […] Data were processed with the TopSpin 3.1 software.

wt IDH1 [3] = molecular target: T1, wt IDH1; experiment: Differential scanning fluorimetry (DSF) thermal shift, wt IDH1; format: binding; settings: 50 mM Tris-HCl, pH 7.5; for thermal stabilisation by cosubstrates: wt IDH1, 0.125—4 mM; for thermal stabilisation (shift in Tm): wt IDH1, divalent metal ions (5 mM)
Description: Thermal shift experiments were carried out using Sypro Orange dye and a CFX96 Touch^TM Real-Time PCR Detection System (Bio-Rad)[69]. […] The standard assay buffer contains 50 mM Tris-HCl at pH 7.5. Various concentrations of substrates were mixed with IDH1 for thermal stabilisation studies. […] Bio-Rad CFX Manager was used to determine the melting temperature, Tm.

wt IDH1 [4] = molecular target: T1, wt IDH1; experiment: Absorbance assay: kinetics of reductive reaction (2OG to isocitrate) by wt IDH1; format: biochemical
Description: (§1) All experiments were performed in (at least) triplicate.
(§2) KM values were determined by varying concentrations of the substrate/cofactor under investigation while maintaining the concentrations of other components using standard conditions. […] Graphs were fitted using GraphPad Prism to obtain kinetic parameters.

wt IDH1 [5] = molecular target: T1, wt IDH1; experiment: Absorbance assay (NADPH, 340 nm): kinetics of oxidative reaction (isocitrate to 2OG) by wt IDH1; format: biochemical
Description: as §1, §2

wt IDH1 [6] = molecular target: T1, wt IDH1; experiment: Non-denaturing protein MS, wt IDH1; format: binding; settings: wt IDH1 dimer with two NADPHs bound
Description: Non-denaturing mass spectra were obtained using a quadrupole time-of-flight mass spectrometer (Synapt HD MS, Waters, Wilmslow, Manchester, UK)[71],[72]. […] Protein concentrations were measured using a Nanodrop spectrometer (Thermo Scientific™ NanoDrop™ One). […] The solution was then sprayed through a nozzle in a Nanomate chip at a spray voltage of 1.8–2.0 kV (spray backing gas pressure 0.8–1.0 psi, inlet pressure 3.8 mbar). […] For promoting collision-induced dissociation of the substrate from its complex with IDH1, a higher cone voltage (200 V) was used. The rest of the voltages and pressures in the mass spectrometer were adjusted for the best resolution and minimum fragmentation. Data collection and analysis were carried out using the Waters MassLynx software. Mass spectra were calibrated externally using the CsI solution to produce CsI cluster ions.

wt IDH1 [7] = molecular target: T1, wt IDH1; experiment: 1H NMR reaction monitoring, wt IDH1; format: biochemical; settings: 1H NMR (700 MHz), NADP+, 10 mM MgCl2
Description: Reaction monitoring employed the same spectrometer with a 5-mm inverse TCI cryoprobe using 5 mm tubes (Norell). Data were recorded with a relaxation delay of 2 s and 32 scans, employing a pulse sequence with water suppression (^1H excitation sculpting suppression with perfect echo using a 2 ms Sinc selective inversion pulse).

[8] = wt IDH1, oxidative reaction with Mn^2+ (10 mM MnCl2)
[9] = wt IDH1, reductive reaction (2OG to isocitrate) with Mg^2+, 100 mM NaHCO3

Structure (SMILES): [Cl-].[K+] [K^+]
- inhibition by metal ion (wt IDH1 [1]): no effect

Structure (SMILES): O=C(O)CNC(=O)C(=O)O [NOG, N-oxalylglycine]
- binding to wt IDH1 (wt IDH1 [2]): bind weakly

Structure (SMILES): [Ba+2].[Cl-].[Cl-] [Ba^2+, BaCl2]
- inhibition by metal ion (wt IDH1 [1]): inhibiting

Structure (SMILES): NC(=O)C1=CN([C@@H]2O[C@H](COP(=O)(O)OP(=O)(O)OC[C@H]3O[C@@H](n4cnc5c(N)ncnc54)[C@H](OP(=O)(O)O)[C@@H]3O)[C@@H](O)[C@H]2O)C=CC1 [NADPH]
- thermal stabilisation by cosubstrates (wt IDH1 [3]): stabilise
- Velocity (wt IDH1 [4]; Fig. S2f, [NADPH] 31.25 μM): 0.06247 µM/s and 0.06738 µM/s and 0.04685 µM/s
- Velocity (wt IDH1 [4]; Fig. S2f, [NADPH] 62.5 μM): 0.08774 µM/s and 0.07774 µM/s and 0.04633 µM/s
- Velocity (wt IDH1 [4]; Fig. S2f, [NADPH] 250 μM): 0.1446 µM/s and 0.1585 µM/s and 0.1383 µM/s
- Velocity (wt IDH1 [4]; Fig. S2f, [NADPH] 500 μM): 0.1648 µM/s and 0.2053 µM/s

Structure (SMILES): [Cl-].[Cs+] [Cs^+]
- inhibition by metal ion (wt IDH1 [1]): no effect

Structure (SMILES): O=C(O)CCC(O)C(=O)O (stereo not shown) [2HG, 2-hydroxyglutarate]
- binding to wt IDH1 (wt IDH1 [2]): not observed to bind

Structure (SMILES): [Ca+2].[Cl-].[Cl-] [Ca^2+, CaCl2]
- inhibition by metal ion (wt IDH1 [1]): inhibiting
- thermal stabilisation (shift in Tm) (wt IDH1 [3]): 3.2 °C

Structure (SMILES): NC(=O)c1ccc[n+](C2OC(COP(=O)(O)OP(=O)([O-])OCC3OC(n4cnc5c(N)ncnc54)C(OP(=O)(O)O)C3O)C(O)C2O)c1 (stereo not shown) [NADP^+]
- Velocity (wt IDH1 [5]; Fig. S2b, [NADP+] 9.375 μM): 0.05756 µM/s and 0.05177 µM/s and 0.06247 µM/s
- Velocity (wt IDH1 [5]; Fig. S2b, [NADP+] 18.75 μM): 0.1158 µM/s and 0.09809 µM/s and 0.09195 µM/s
- Velocity (wt IDH1 [5]; Fig. S2b, [NADP+] 37.5 μM): 0.1572 µM/s and 0.1441 µM/s and 0.152 µM/s
- Velocity (wt IDH1 [5]; Fig. S2b, [NADP+] 75 μM): 0.1869 µM/s and 0.1658 µM/s and 0.2058 µM/s
- Velocity (wt IDH1 [5]; Fig. S2b, [NADP+] 150 μM): 0.2085 µM/s and 0.1992 µM/s and 0.219 µM/s
- Velocity (wt IDH1 [5]; Fig. S2b, [NADP+] 300 μM): 0.2511 µM/s and 0.2272 µM/s and 0.239 µM/s
- Velocity (wt IDH1 [5]; Fig. S2b, [NADP+] 600 μM): 0.245 µM/s and 0.2229 µM/s and 0.192 µM/s
- Velocity (wt IDH1 [5]; Fig. S2b, [NADP+] 1200 μM): 0.2522 µM/s and 0.2318 µM/s and 0.2402 µM/s
- Velocity (wt IDH1 [5]; Fig. S2b, [NADP+] 2400 μM): 0.2325 µM/s and 0.2464 µM/s and 0.2378 µM/s
- Velocity (wt IDH1 [5]; Fig. S3b, MnCl2 as metal, [NADP+] 2.34375 μM): 0.01474 µM/s and 0.01079 µM/s and 0.008423 µM/s
- Velocity (wt IDH1 [5]; Fig. S3b, MnCl2 as metal, [NADP+] 4.6875 μM): 0.04185 µM/s and 0.03843 µM/s and 0.02737 µM/s
- Velocity (wt IDH1 [5]; Fig. S3b, MnCl2 as metal, [NADP+] 9.375 μM): 0.08765 µM/s and 0.07107 µM/s and 0.0637 µM/s
- Velocity (wt IDH1 [5]; Fig. S3b, MnCl2 as metal, [NADP+] 18.75 μM): 0.1629 µM/s and 0.1316 µM/s and 0.1234 µM/s
- Velocity (wt IDH1 [5]; Fig. S3b, MnCl2 as metal, [NADP+] 37.5 μM): 0.2419 µM/s and 0.1971 µM/s and 0.1732 µM/s
- Velocity (wt IDH1 [5]; Fig. S3b, MnCl2 as metal, [NADP+] 75 μM): 0.3032 µM/s and 0.278 µM/s and 0.2851 µM/s
- Velocity (wt IDH1 [5]; Fig. S3b, MnCl2 as metal, [NADP+] 150 μM): 0.3353 µM/s and 0.3245 µM/s and 0.3419 µM/s
- Velocity (wt IDH1 [5]; Fig. S3b, MnCl2 as metal, [NADP+] 300 μM): 0.3651 µM/s
- thermal stabilisation by cosubstrates (wt IDH1 [3]): stabilise

Structure (SMILES): [Cl-].[Cl-].[Co+2] [Co^2+, CoCl2]
- inhibition by metal ion (wt IDH1 [1]): inhibitory

Structure (SMILES): N#Cc1ccnc(N2C(=O)CC[C@H]2C(=O)N(c2cncc(F)c2)[C@H](C(=O)NC2CC(F)(F)C2)c2ccccc2Cl)c1 [AG-120, Ivosidenib]
- binding stoichiometry (wt IDH1 [6]): one inhibitor per IDH1 dimer
- weakening of D-isocitrate binding to wt IDH1 (wt IDH1 [2]): not
- displacement of D-isocitrate from wt IDH1 (wt IDH1 [2]): partially displaced

Structure (SMILES): COc1c(C)cc(NC(=O)c2nn(Cc3ccc(F)cc3)c3c2CN(C(=O)c2ccc[nH]2)C[C@]3(C)C(N)=O)cc1C [GSK864]
- binding stoichiometry (wt IDH1 [6]): two inhibitors per IDH1 dimer
- weakening of D-isocitrate binding to wt IDH1 (wt IDH1 [2]): not
- displacement of D-isocitrate from wt IDH1 (wt IDH1 [2]): partially displaced

Structure (SMILES): [Cl][Mn][Cl] [MnCl2]
- Velocity (wt IDH1 [5]; Fig. S3c, [MnCl2] 1.16415 μM): 0.08423 µM/s and 0.08186 µM/s and 0.1169 µM/s
- Velocity (wt IDH1 [5]; Fig. S3c, [MnCl2] 1.86265 μM): 0.2269 µM/s and 0.1979 µM/s and 0.204 µM/s
- Velocity (wt IDH1 [5]; Fig. S3c, [MnCl2] 4.76837 μM): 0.3206 µM/s and 0.2772 µM/s and 0.338 µM/s
- Velocity (wt IDH1 [5]; Fig. S3c, [MnCl2] 7.62939 μM): 0.3506 µM/s and 0.2861 µM/s and 0.3632 µM/s
- Velocity (wt IDH1 [5]; Fig. S3c, [MnCl2] 12.207 μM): 0.3785 µM/s and 0.3498 µM/s
- Velocity (wt IDH1 [5]; Fig. S3c, [MnCl2] 19.5312 μM): 0.3561 µM/s and 0.3846 µM/s
- Velocity (wt IDH1 [5]; Fig. S3c, [MnCl2] 31.25 μM): 0.3922 µM/s and 0.3424 µM/s and 0.3875 µM/s
- Velocity (wt IDH1 [5]; Fig. S3c, [MnCl2] 50 μM): 0.4096 µM/s and 0.3893 µM/s and 0.3938 µM/s
- kcat (wt IDH1 [5]; wt IDH1, oxidative reaction with Mn^2+): 81 ± 11 s⁻¹
- Km (wt IDH1 [5]; [8]): 2 ± 0.3 µM
- Vmax (wt IDH1 [5]; [8]): 416 ± 13 nM/s
- effect of metal ion on catalysis (wt IDH1 [1]; wt IDH1, metal ions 10 mM): promoted
- thermal stabilisation (shift in Tm) (wt IDH1 [3]): 2.9 °C

Structure (SMILES): [Cl][Cd][Cl] [Cd^2+, CdCl2]
- inhibition by metal ion (wt IDH1 [1]): inhibitory

Structure (SMILES): O=C(O)CCC(=O)C(=O)O [2OG, 2-oxoglutarate]
- binding to wt IDH1 (wt IDH1 [2]): bind weakly
- Velocity (wt IDH1 [4]; Fig. S2e, [2OG] 312.5 μM): 0.04369 µM/s and 0.04159 µM/s and 0.04334 µM/s
- Velocity (wt IDH1 [4]; Fig. S2e, [2OG] 625 μM): 0.08493 µM/s and 0.08598 µM/s and 0.07405 µM/s
- Velocity (wt IDH1 [4]; Fig. S2e, [2OG] 2500 μM): 0.1446 µM/s and 0.1407 µM/s and 0.1265 µM/s
- Velocity (wt IDH1 [4]; Fig. S2e, [2OG] 5000 μM): 0.1734 µM/s and 0.1435 µM/s and 0.1563 µM/s
- Velocity (wt IDH1 [4]; Fig. S2e, [2OG] 10000 μM): 0.2051 µM/s and 0.2078 µM/s and 0.1434 µM/s
- Km (wt IDH1 [4]; [9]): 1100 µM
- Vmax (wt IDH1 [4]; [9]): 200 ± 16 nM/s

Structure (SMILES): [Cl-].[Li+] [Li^+]
- inhibition by metal ion (wt IDH1 [1]): no effect

Structure (SMILES): O=C(O)C[C@H](C(=O)O)[C@@H](O)C(=O)O [L-isocitrate]
- conversion by wt IDH1 (wt IDH1 [7]): neither a substrate nor an inhibitor

Structure (SMILES): [Cl][Ni][Cl] [Ni^2+, NiCl2]
- inhibition by metal ion (wt IDH1 [1]): inhibitory

Structure (SMILES): [Cl-].[Cl-].[Sr+2] [Sr^2+, SrCl2]
- inhibition by metal ion (wt IDH1 [1]): inhibiting

Structure (SMILES): [Na+] [Na^+]
- inhibition by metal ion (wt IDH1 [1]): no effect

Structure (SMILES): O=C(O)CC(C(=O)O)C(O)C(=O)O (racemic) [DL-isocitrate]
- Km (wt IDH1 [5]; wt IDH1, oxidative reaction with Mg^2+ (10 mM MgCl2)): 38 ± 6 µM
- Km (wt IDH1 [5]; [8]): 35 ± 4 µM

Structure (SMILES): [Cl-].[Cl-].[Zn+2] [Zn^2+, ZnCl2]
- inhibition by metal ion (wt IDH1 [1]): inhibitory

— article PMC8560763, “Roles of metal ions in the selective inhibition of oncogenic variants of isocitrate dehydrogenase 1” (Communications Biology, 2021)
